Experimental data taken from US7199156B2, “Composition and method to treat solid tumors” (priority 2003, dated 2007).
Entries after “also recorded” stand apart in the source; their conditions may differ. Marks after values point to notes of the source that are not given here.

Assays:
[1] = free BAPN; quickly excreted and metabolized; cited from earlier work
[2] = system: malignant mammary adenocarcinoma, code 13762 NM; assay: Single injection of lipophilic lathyrogen/polymeric carrier into mammary carcinoma (Example V); format: in vivo, rats; settings: single intratumoral injection on day 10, in polymeric carrier with unmodified DPA or BAPN
Method: In this Example V, Applicant prepared a formulation comprising methylester-DPA.HCl, i.e. Compound II wherein R1 is methyl and wherein R2 is hydrogen, and wherein X is chloride, or Hexyl(amino)-propionitrile, i.e. Compound IV, wherein R4 is hexyl, dispersed in a liquid polymeric carrier.
Applicant dispersed 1 gram of either methylester-DPA.HCl, or hexyl(amino) propionitrile, in combination with about 100 mg of the unmodified DPA or BAPN, respectively, in about 1 ml of the liquid polymer. After thorough mixing, 1 ml volume syringes were filled with Applicant's formulation. All preparations were performed at about 4° C., over crushed ice, and the syringes and needles used were refrigerated prior to loading. The loaded syringes were kept in a refrigerated vessel until used.
The rat model of solid tumor was described by Miller et al. (Proc Nat'l Acad Sci 90,3304,1993). Fischer 344 (F344) inbred female rats were used. The initial body weight was 100 grams, plus or minus about 7 grams. The right flank area was clipped, and the rats were tattooed for identification in the ear. […]
There were 6 rats per group. […] Once the implanted tumor was detectable, the size of that tumor was measured by caliper in two perpendicular directions.
The growth of each tumor was determined every second day. […]

[3] = system: breast adenocarcinome; assay: Single injection into mammary carcinoma, breast adenocarcinome model (Example VI); format: in vivo, rats; settings: single intratumoral injection; FIG. 3
Method: In this Example VI, Applicant studied the effect of various treatments on the tumor growth, survival rate, morphology, and metastases in Fisher rats of breast adenocarcinome model.
The method of Example V was used to prepare and inject tumor chunks into the test animals. In Example VI, Applicant used 5 groups of animals with 8 rats per group.
The preparation of the treatment modalities was as follows: • Group 1. Control • Group 2. Polymer Carrier only; used 1.5 ml polymer+1 ml water (polymer used: 38% PLGA-c-PEG in saline) • Group 3. 2 grams Polymeric Carrier+1.038 grams Hexyl ester DPA.HCl+200 mg DPA • Group 4. 800 mg Hexyl ester DPA.HCl+200 mg DPA+2 ml water • Group 5. 1.5 grams Polymeric Carrier+1.5 grams Hexyl (amino)propionitrile+200 mg BAPN Once mixed, all materials were kept on ice until injection time. The various formulations were injected into the tumor using a 23 gauge needle. The retains of Groups 2, 3, and 5, remained pourable after 2–3 hours at 82° F.

[4] = Rate of release of lathyrogen from polymeric carrier HYPA(N-30) into saline; format: physicochemical; settings: for Percent Released: from HYPA(N-30) carrier into saline, 37° C.
Method: Applicant compared the rate of release from a polymeric carrier of unmodified […] hydrophilic lathyrogen, and a lipophilic D-penicillamine adduct formed by reacting DPA with hexanaldehyde using a published synthetic procedure. Both lathyrogens were dispersed in a polyacrylonitrile (“PAN”) polymer sold in commerce by SKY Polymers, Princeton, N.J. under the tradename HYPA(N-30). The HYPA(N-30) was dissolved in 100% DMSO. Water drowning this DMSO/HYPA(N-30)/lipophilic DPA solution, using a syringe with a 16 gauge needle attached, into saline (0.9% NaCl in water W/v) forms a flexible, solid string. The […] was kept at 37° C., and the incubation jar was minimally shaken. At the times recited in Table 1, an aliquot of the incubation medium was collected and the amount of released D-penicillamine was determined using a reaction between ninhydrin and the free amino groups on the released DPA. […] The ninhydrin reaction requires heating the sample at 100° C., thus freeing the amino group. Table 1 recites the results.

[5] = system: B-16 melanoma cells; assay: Repeated injections of DPA into melanoma tumor (Example IV); format: in vivo, mice; settings: for Volume of melanoma tumor: 5 mg DPA in 0.2 ml saline daily, intratumoral, average
Method: Female mice, standard inbred C 57/Black, having between about 20 to about 25 g body weight were injected s.c. in the right flank region with 0.1 ml of […] B-16 melanoma cells. These cells are harvested in their end of the log phase growth. These cells come from a tissue culture, using RPMI 1640 medium with 10% FBS enriched with 1-glutamine, penicillin and streptomycin. Cells are harvested by trypsinization, counted, suspended in sterile PBS, and injected in 0.1 ml s.c. in flank region. There were 4 mice per group.
Injection of these melanoma cells resulted within 10 days post injection to a tumor weight of about 1.5 g. Tumor volumes were monitored 3× per week by caliper (MITUYO digital, Smalls Parts Inc., Phoenix, Ariz.) in two perpendicular directions and once per week for body weight. Tumor volume in cubic millimeters is calculated by the formula: (length×(width^2))/2.
Monitoring was continued up to 4 weeks. When the control animals began to die from the tumor burden, the experiment was terminated. Individual animals were terminated once the tumor volume exceeded 20% of mice weight, or when the body weight loss exceeded 20% of the starting body weight.
Table 2 recites the volume, in cubic millimeters, of the melanoma tumor injected daily with 5 mg DPA in 0.2 ml of saline. The treatment was administered once the tumor reached a detectable and measurable size. Average volumes are recited in Table 2. […] There was no effect on body weight or animals behavior.

[6] = known properties; cited from earlier work
[7] = cited from earlier work

Compound: N#CCCN [BAPN, beta-aminopropionitrile]
- duration of activity [1]: no more than 24 hours

Compound: CCCCCCNCCC#N [Hexylamino-propionitrile, Hexyl(amino)-propionitrile]
- growth of the tumor [2]: markedly inhibited; also recorded: inhibitory effect

Compound: COC(=O)[C@H](N)C(C)(C)S.Cl [methylester-DPA.HCl, DPA-Methylester Hydrochloride]
- growth of the tumor ([2]; Hydrochloride): even more pronounced inhibition of tumor growth; also recorded: inhibitory effect
- tumor growth [3]: effective

Compound: D-Pencillamine [DPA]
- time over which released from the polymeric carrier ([4]; FIG. 1): a few hours
- Percent Released ([4]; Time 0.1 hours): 29%
- Percent Released ([4]; Time 2 hours): 89%
- Percent Released ([4]; Time 20 hours): 100%
- effect on body weight or animals behavior ([5]; daily intratumoral 5 mg DPA): no effect
- Volume of melanoma tumor ([5]; day 0 after detectable tumor was injected): 89 cubic millimeters
- Volume of melanoma tumor ([5]; day 2): 174* cubic millimeters
- Volume of melanoma tumor ([5]; day 5): 806* cubic millimeters
- Volume of melanoma tumor ([5]; day 7): 816* cubic millimeters
- Volume of melanoma tumor ([5]; day 9): 486* cubic millimeters
- Toxicity In local administration [6]: none
- Toxicity in systemic administration [6]: yes
- solubility in aqueous media, such as tissue fluid [7]: very soluble
